Laboratory results taken from patent US20040077687A1, “Thiazolmines and their use as tgf-beta inhibitors” (priority 2003, published 2004).

What was measured:
[1] = test system: TGF-β signalling (PAI-1 promoter luciferase reporter in HepG2 cells); experiment: Assay 1: PAI-1 promoter firefly luciferase reporter in HepG2 cells exposed to TGF-β; conditions: for IC50: Homo sapiens, HepG2, read-out: IC50 value in Assay 1
Description: The assay was performed in HepG2 cells stably transfected with the PAI-1 promoter (known to be a strong TGF-β responsive promoter) linked to a luciferase (firefly) reporter gene. The compounds were selected on their ability to inhibit luciferase activity in cells exposed to TGF-β. In addition cells were transfected with a second luciferase (Renilla) gene which was not driven by a TGF-β responsive promoter and was used as a toxicity control.
(96 well-)microplates are seeded, using a multidrop apparatus, with the stably transfected cell line at a concentration of 35000 cells per well in 200 μl of serum-containing medium. These plates are placed in a cell incubator.
18 to 24 hours later (Day 2), cell-incubation procedure is launched. Cells are incubated with TGF-β and a candidate compound (TGF-β inhibitor) at concentrations in the range 50 nM to 10 μM (final concentration of DMSO 1%). The final concentration of TGF-β (rhTGFβ1) used in the test is 1 ng/mL. […] The final volume of the test reaction is 150 μl. Each well contains only one candidate compound and its effect on the PAI-1 promoter is monitored.
Columns 11 and 12 are employed as controls. Column 11 contains 8 wells in which the cells are incubated in the presence of TGF-β, without a candidate compound. Column 11 is used to determine the ‘reference TGF-β induced firefly luciferase value’ against which values measured in the test wells (to quantify inhibitory activity) may be compared. In wells A12 to D12, cells are grown in medium without TGF-β. The firefly luciferase values obtained from these positions are representive of the ‘basal firefly luciferase activity’. In wells E12 to H12, cells are incubated in the presence of TGF-β and 500 μM CPO (Cyclopentenone, Sigma), a cell toxic compound.
12 to 18 hours later (day 3), the luciferase quantification procedure is launched. The following reactions are performed using reagents obtained from a Dual Luciferase Assay Kit (Promega). Cells are washed and lysed with the addition of 10 μl of passive lysis buffer (Promega). Following agitation (15 to 30 mins), luciferase activities of the plates are read in a dual-injector luminometer (BMG lumistar). For this purpose, 50 μl of luciferase assay reagent and 50 μl of ‘Stop & Glo’ buffer are injected sequentially to quantify the activities of both luciferases. The mean Luciferase activity value obtained in wells A11 to H11 (Column 11, TGF-βonly) is considered to represent 100% and values obtained in wells A12 to D12 (cells in medium alone) give a basal level (0%). For each of the compounds tested, a concentration response curve is constructed from which an IC50 value can be determined graphically.

SMILES | melting point [°C] | IC50 [1] [µM] | firefly and renilla luciferase activities relative to column 11 (TGF-β only); toxicity control ([1]; 500 μM CPO in the presence of TGF-β, HepG2 reporter cells)
O=C1C=CCC1 [CPO, Cyclopentenone, reference compound] | – | – | around 50%
COc1ccc(-c2cc(-c3sc(N)nc3-c3ccccn3)ccn2)cc1 [Example 2, 5-[2-(4-Methoxyphenyl)pyridin-4-yl]-4-pyridin-2-yl-1,3-thiazol-2-amine] | 222 | ≤ 5 | –
CCOc1ccc(-c2cc(-c3sc(N)nc3-c3ccccn3)ccn2)cc1 [Example 5, 5-[2-(4-Ethoxyphenyl)pyridin-4-yl]-4-pyridin-2-yl-1,3-thiazol-2-amine] | 246 | ≤ 5 | –
CCc1ccc(-c2cc(-c3sc(N)nc3-c3ccccn3)ccn2)cc1 [Example 4, 5-[2-(4-Ethylphenyl)pyridin-4-yl]-4-pyridin-2-yl-1,3-thiazol-2-amine] | 238 | ≤ 5 | –

Continued, in another order:

melting point [°C] | IC50 [1] [µM] | SMILES | firefly and renilla luciferase activities relative to column 11 (TGF-β only); toxicity control ([1]; 500 μM CPO in the presence of TGF-β, HepG2 reporter cells)
244 | ≤ 5 | Nc1nc(-c2ccccn2)c(-c2ccnc(-c3ccsc3)c2)s1 [Example 6, 5-[2-(Thiophen-3-yl)pyridin-4-yl]-4-pyridin-2-yl-1,3-thiazol-2-amine] | –
256 to 257 | ≤ 5 | Nc1nc(-c2ccccn2)c(-c2ccnc(-c3ccc(Cl)cc3)c2)s1 [Example 1, 5-[2-(4-Chlorophenyl)pyridin-4-yl]-4-pyridin-2-yl-1,3-thiazol-2-amine] | –
250 | ≤ 5 | Nc1nc(-c2ccccn2)c(-c2ccnc(-c3ccc(F)cc3)c2)s1 [Example 3, 5-[2-(4-Fluorophenyl)pyridin-4-yl]-4-pyridin-2-yl-1,3-thiazol-2-amine] | –
